The record followed here is ChEMBL document CHEMBL2434849, “The development of bis(hydroxymethyl)pyrrole analogs as bifunctional DNA cross-linking agents and their chemotherapeutic potential” (Eur J Med Chem, 2013).

Assay [1] in a line: Cytotoxicity against human H460 cells. The class given is functional, cell-based. Conditions: NCI-H460.
A further assay has as its system MCF7. The assay can be described thus: Cytotoxicity against human MCF7 cells. The class given is functional, cell-based.
In another assay the test system is PC-3. Description: Cytotoxicity against human PC3 cells. The class given is functional, cell-based.
The test system of a further assay is HL-60. The assay can be described thus: Cytotoxicity against human HL60 cells. The class given is functional, cell-based.
A further assay concerns B16. Description: Antitumor activity against mouse B16 cells graft model at 12.5 mg/kg, ip qd for 9 days. The class given is functional. Conditions: route intraperitoneal.
The test system of assay [2] is P388. Description: Antitumor activity against mouse P388 cells graft model at 7.5 mg/kg, ip qd for 5 days. Conditions: route intraperitoneal. The class given is functional.
The subject of assay [3] is P388. The assay can be described thus: Antitumor activity against mouse P388 cells assessed as increase in life span of host. The class given is functional.

For `CNC(=O)OCc1c(COC(=O)NC)c(-c2ccc(OC)cc2)n2c1Cc1ccccc1-2`, the IC50 turned out to be 82.1 µM in assay [1] and 20 µM with MCF7.
On to `COc1ccc(-c2c(COC(=O)NC(C)C)c(COC(=O)NC(C)C)c3n2-c2ccccc2C3)cc1`, for which the IC50 was 23.2 µM in the assay on PC-3, 20.3 µM in assay [1] and 34.2 µM in the assay with MCF7.
Regarding `CCNC(=O)OCc1c(COC(=O)NCC)c(-c2ccc(OC)cc2)n2c1Cc1ccccc1-2`, the concentration for half-maximal inhibition (IC50) amounted to 30.2 µM in the assay on PC-3, 13.2 µM in assay [1] and 25.9 µM in the assay with MCF7.
In the case of `CC(C)NC(=O)OCc1c(COC(=O)NC(C)C)c(-c2ccc(F)cc2)n2c1SCC2`, the IC50 in the assay on HL-60 is 1.6 µM. This counts as single-digit micromolar.
Consider `COc1ccc2c(c1)CCn1c(C)c(COC(=O)NC(C)C)c(COC(=O)NC(C)C)c1-2`, for which the T/C with B16 was 180%; in the assay on P388 [2], 232%.
For `Cc1c(COC(=O)NC(C)C)c(COC(=O)NC(C)C)c2n1CS(=O)(=O)C2`, the Activity in the assay with P388 [3] is reported as 118%.
Regarding `CC(C)NC(=O)OCc1c(COC(=O)NC(C)C)c(-c2ccc(Cl)cc2)n2c1SCC2`, half-maximal inhibition with HL-60 (IC50) required 0.85 µM.
Same read-out and setting: with `CC(C)NC(=O)OCc1c(COC(=O)NC(C)C)c(-c2ccccc2)n2c1SCC2` the figure was 1.5 µM; with `CC(C)NC(=O)OCc1c(COC(=O)NC(C)C)c(-c2ccc(Cl)c(Cl)c2)n2c1CCC2`, 1.5 µM.

A word on the IC50: it is the concentration that gives 50% inhibition. Low values mean higher potency, high ones lower potency. For orientation: T/C means the ratio of treated to control.
